The source of these data is patent publication US20260098019A1, “SYNTHESIS OF NSAID CONJUGATES AS ANTI-INFLAMMATORY AGENTS USING THE MOLECULAR HYBRIDIZATION” (AUGUSTA UNIVERSITY RESEARCH INSTITUTE, INC., priority 2022, published 2026).

Marks after values point to notes of the source that are not given here.

Series [1] concerns the target COX-1 (UniProt P05979). It is filed as biochemical, human. Particulars: ± SD. The source says:
Rev. […] Thromb. Vasc. […] Rev. […] Rev. […] Rev. Oncol. Hematol. […] Curr. Pharm. Des. […] Luong, et al., Nat. Struct. […] A. and Marnett, L. J., Chem. Rev. […] Drug Discov. […] Biomol.

Series [2] has as its system gastric mucosa. The series can be described thus: ulcerogenic liability. Particulars: for % Incidence of ulcer divided by 10 / Average of ulcer number / Average severity of ulcer / Number of animals with ulcer: three successive days, 10 mg/kg indomethacin mol equivalent; for Number of animals with ulcer: 6 animals.
Experimental: The ulcerogenic liability of conjugates was determined in albino mice following a standard method. Animals of either sex (pregnant females were excluded) weighing 20-25 g were divided into 8 groups of 6 animals each. The animals fasted 18 h before drug administration. […] The control group animals were given water with a few drops of Tween 80. The animals were sacrificed by cervical dislocation and the stomach was removed, opened along the greater curvature, and rinsed with saline. The gastric mucosa was examined with a magnifying lens (10×) for the presence of lesions and erosions. The ulcer index was calculated (Table 4) and the degree of ulcerogenic effect was expressed in terms of: (1) the percentage incidence of ulcers divided by 10; (2) average number of ulcers per stomach; and (3) average severity of ulcers. The ulcer index is the value that resulted from the sum of the above three values.
In series [3] the test system is hot plate latency. Description: hot plate test (central analgesic). It is filed as in vivo, albino mice. The settings on record: for Observed property: % Protection central analgesic (120 min); for Latency period ± SE: 10 mg/kg indomethacin mol equivalent i.p., cutoff 15 seconds; for % Protection: vs control; for Potency: at 120 min. compared to indomethacin. As to the method:
An in vivo standard hot plate test was performed. […] The control group animals were given sterile/distilled water with few drops of Tween 80. The maximum cutoff time was 15 seconds to prevent tissue damage. Response latencies were measured at 30, 60, 90 and 120 inns. The % protection was calculated by equ. (5), where, Ti, To are the latency time mean of the tested compound and control group respectively (Table 3).
(In general: Thermal pain tests record how soon the animal reacts.)

Series [4] relates to acetic acid-induced writhing. The series can be described thus: acetic acid-induced writhing test (peripheral analgesic). The series is classed as in vivo, albino mice. The settings on record: for 1/(observed property): 1/(% inhibition) peripheral analgesic; for Observed property: % inhibition/protection peripheral analgesic; for % Inhibition/protection: vs control; for % Inhibition/protection / Writing reflex ± SE: 10 mg/kg indomethacin mol equivalent i.p.; for Potency: % inhibition/protection compared to indomethacin; for Writing reflex ± SE: number of writhing counted for 30 min. As to the method: Peripheral analgesic activity was measured by the standard acetic acid-induced writhing test in mice. […] One hour after the i.p. administration, each mouse was injected with 0.1 ml of 1% acetic acid solution i.p. The control group animals were given sterile/distilled water with few drops of Tween 80. Starting 5 min after the acetic acid injection, the number of muscular contractions in each mouse was counted for 30 min. A significant reduction in the number of writhing by a conjugate compared with control animals was considered as a positive analgesic response. Percentage protection was calculated according to equ. (3), where n is the average number of writhing in the control group and n′ is the average number of writhing in the treated group. The % potency was calculated by equ. (4) (Table 2).

Chain of COX-1 (P05979 whole entry): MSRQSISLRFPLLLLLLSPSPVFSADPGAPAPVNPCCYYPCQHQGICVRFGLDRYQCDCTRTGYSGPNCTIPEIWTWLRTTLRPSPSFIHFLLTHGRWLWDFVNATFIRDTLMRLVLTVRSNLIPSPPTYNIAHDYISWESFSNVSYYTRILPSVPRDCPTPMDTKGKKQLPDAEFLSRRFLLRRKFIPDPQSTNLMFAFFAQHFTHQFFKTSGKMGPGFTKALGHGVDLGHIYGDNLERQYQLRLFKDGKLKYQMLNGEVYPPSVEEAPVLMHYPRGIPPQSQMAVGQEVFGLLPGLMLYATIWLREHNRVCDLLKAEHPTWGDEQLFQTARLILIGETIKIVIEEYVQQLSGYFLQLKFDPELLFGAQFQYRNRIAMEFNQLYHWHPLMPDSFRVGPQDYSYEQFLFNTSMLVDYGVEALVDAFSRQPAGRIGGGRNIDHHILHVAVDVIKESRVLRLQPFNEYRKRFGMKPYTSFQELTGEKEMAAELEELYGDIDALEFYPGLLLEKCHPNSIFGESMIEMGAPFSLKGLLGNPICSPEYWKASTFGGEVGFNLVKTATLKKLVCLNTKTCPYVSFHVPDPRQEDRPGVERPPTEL

By IC50 is commonly meant the midpoint of a concentration-inhibition curve. Higher therefore signals weaker potency. For `CC(C)Cc1ccc(C(C)C(=O)OCc2cn(-c3ccccc3Cl)nn2)cc1` (stereo not drawn) [Compound 5a, (1-(2-Chlorophenyl)-1H-1,2,3-triazol-4-yl)methyl 2-(4-isobutylphenyl)propanoate], it took 17.2 ± 0.41 µM to reach half-maximal inhibition in series [1] (IC50). For the same compound, the “ulcers or erosions to the gastric / ulcerogenic liability (in words)” value in series [2] (mice, oral) is “none and No ulcerogenic liability”. Also, in series [2] (oral), the “% Incidence of ulcer divided by 10” value turned out to be 0, the “Average of ulcer number” value was 0, the “Average severity of ulcer” value was determined as 0 and the “Number of animals with ulcer” value came out at 0. Further, the Ulcer index in series [2] (sum of the three values) is 0. Moreover, the Observed property in series [3] came to 54.5. Besides, in series [4], the “1/(observed property)” value is given as 0.01201, the Observed property turned out to be 83.3 and the “% Inhibition/protection” value came out at 83.3%.

In the case of `CC(C)Cc1ccc(C(C)C(=O)OCc2cn(-c3ccc(F)cc3)nn2)cc1` (stereo not drawn) [Compound 5c, (1-(4-Fluorophenyl)-1H-1,2,3-triazol-4-yl)methyl 2-(4-isobutylphenyl)propanoate], the Observed property in series [3] came to 18. The “% protection compared with parent compound ibuprofen” value in series [3] (at 30 min) is 1.8 folds. In addition, in series [4], the “1/(observed property)” value is on record as 0.01201 and the Observed property worked out at 83.3.

With `COc1ccc(-n2cc(COC(=O)C(C)c3ccc(CC(C)C)cc3)nn2)cc1` (stereo not drawn) [Compound 5f, (1-(4-Methoxyphenyl)-1H-1,2,3-triazol-4-yl)methyl 2-(4-isobutylphenyl)propanoate], the Observed property in series [3] is reported as 0.2; in series [4], 80.0. Moreover, the “1/(observed property)” value in series [4] was 0.0125.

With `CC(C)Cc1ccc(C(C)C(=O)OCc2cn(-c3ccc([N+](=O)[O-])cc3)nn2)cc1` (stereo not drawn) [Compound 5g, (1-(4-Nitrophenyl)-1H-1,2,3-triazol-4-yl)methyl 2-(4-isobutylphenyl)propanoate], the Observed property in series [3] turned out to be 28.1; in series [4], 65.0. Also, the “1/(observed property)” value in series [4] is listed as 0.01538.

With `C#CCOC(=O)Cc1c(C)n(C(=O)c2ccc(Cl)cc2)c2ccc(OC)cc12` [Compound 7, prop-2-yn-1-yl 2-(1-(4-chlorobenzoyl)-5-methoxy-2-methyl-1H-indol-3-yl) acetate], the “Latency period ± SE” value in series [3] (After 30 min.) was 6.68 s; in series [3] (After 60 min.), 9.54 ± 1.6 s; in series [3] (After 90 min.), 11.18 ± 1.5 s; in series [3] (After 120 min.) it was 10.78 ± 1.8 s. The “% Protection” value was 2.0* (0.0) % in series [3] (After 30 min.), “(31.2) %” in series [3] (After 60 min.), “(25.5) %” in series [3] (After 90 min.) and “(19.6) %” in series [3] (After 120 min.). Further, the Potency is given as 34.7% in series [3] and 124.4% in series [4]. Moreover, the “Writing reflex ± SE” value in series [4] came out at 4.3 ± 0.5. Also, the “% Inhibition/protection” value in series [4] turned out to be 89.3%.

In series [3], `COc1ccc2c(c1)c(CC(=O)OCc1cn(-c3ccccc3Cl)nn1)c(C)n2C(=O)c1ccc(Cl)cc1` [Compound 8a, (1-(2-Chlorophenyl)-1H-1,2,3-triazol-4-yl)methyl 2-(1-(4-chlorobenzoyl)-5-methoxy-2-methyl-H-indol-3-yl)acetate] gave an Observed property of 51.3 and a Potency of 90.8%. Further, in series [3] (After 30 min.), the “Latency period ± SE” value turned out to be 12.19 s and the “% Protection” value was “(82.5) %”. Moreover, in series [3] (After 60 min.), the “Latency period ± SE” value is 13.51 s and the “% Protection” value was 1.7** (85.8) %. In series [3] (After 90 min.), the “Latency period ± SE” value turned out to be 13.85 ± 1.4 s and the “% Protection” value was “(55.4) %”. For the same compound, in series [3] (After 120 min.), the “Latency period ± SE” value was 13.63 ± 1.3 s and the “% Protection” value is “(51.3) %”. In series [4], the “1/(observed property)” value turned out to be 0.02028, the Potency was determined as 68.7%, the Observed property worked out at 49.3 and the “Writing reflex ± SE” value was found to be 20.3 ± 1.8. Also, the “% Inhibition/protection” value in series [4] was 49.3%.

In turn, `COc1ccc2c(c1)c(CC(=O)OCc1cn(-c3ccc(Cl)cc3)nn1)c(C)n2C(=O)c1ccc(Cl)cc1` [Compound 8b, (1-(4-Chlorophenyl)-1H-1,2,3-triazol-4-yl)methyl 2-(1-(4-chlorobenzoyl)-5-methoxy-2-methyl-1H-indol-3-yl)acetate] displayed an Observed property in series [3] of 9.7. Further, in series [4], the “1/(observed property)” value turned out to be 0.0216 and the Observed property was found to be 46.3.

In the case of `COc1ccc2c(c1)c(CC(=O)OCc1cn(-c3ccc(F)cc3)nn1)c(C)n2C(=O)c1ccc(Cl)cc1` [Compound 8c, (1-(4-Fluorophenyl)-1H-1,2,3-triazol-4-yl)methyl 2-(1-(4-chlorobenzoyl)-5-methoxy-2-methyl-1H-indol-3-yl)acetate], in series [3], the Observed property was determined as 48.1. For the same compound, in series [4], the “1/(observed property)” value is reported as 0.02421 and the Observed property stood at 41.3.

For `COc1ccc2c(c1)c(CC(=O)OCc1cn(-c3ccc(C)cc3)nn1)c(C)n2C(=O)c1ccc(Cl)cc1` [Compound 8d, (1-(p-Tolyl)-1H-1,2,3-triazol-4-yl)methyl 2-(1-(4-chlorobenzoyl)-5-methoxy-2-methyl-1H-indol-3-yl)acetate], the Observed property is recorded as 48.6 in series [3] and 62.5 in series [4]. The “1/(observed property)” value in series [4] turned out to be 0.016.

The compound `COc1ccc2c(c1)c(CC(=O)OCc1cn(-c3ccccc3OC)nn1)c(C)n2C(=O)c1ccc(Cl)cc1` [Compound 8e, (1-(2-Methoxyphenyl)-1H-1,2,3-triazol-4-yl)methyl 2-(1-(4-chlorobenzoyl)-5-methoxy-2-methyl-1H-indol-3-yl)acetate] had an Observed property in series [3] of 28.9. Besides, in series [4], the “1/(observed property)” value is on record as 0.01238 and the Observed property stood at 80.8.

Compound `COc1ccc(-n2cc(COC(=O)Cc3c(C)n(C(=O)c4ccc(Cl)cc4)c4ccc(OC)cc34)nn2)cc1` [Compound 8f, (1-(4-Methoxyphenyl)-1H-1,2,3-triazol-4-yl)methyl 2-(1-(4-chlorobenzoyl)-5-methoxy-2-methyl-1H-indol-3-yl)acetate] showed an Observed property in series [3] of 66.5. Further, in series [4], the “1/(observed property)” value was found to be 0.01497 and the Observed property is listed as 66.8.

In series [3], `COc1ccc2c(c1)c(CC(=O)OCc1cn(-c3ccc([N+](=O)[O-])cc3)nn1)c(C)n2C(=O)c1ccc(Cl)cc1` [Compound 8g, (1-(4-Nitrophenyl)-1H-1,2,3-triazol-4-yl)methyl 2-(1-(4-chlorobenzoyl)-5-methoxy-2-methyl-1H-indol-3-yl)acetate] returned an Observed property of 2.7. Also, in series [4], the “1/(observed property)” value is 0.01038 and the Observed property was 96.3.

With `CC(C)Cc1ccc(C(C)C(=O)O)cc1` (stereo not drawn) [Ibu, 2-(4-isobutylphenyl)propanoic acid, reference compound], in series [2] (oral), the “% Incidence of ulcer divided by 10” value turned out to be 3.33, the “Average of ulcer number” value is listed as 0.33, the “Average severity of ulcer” value is reported as 0.67 and the “Number of animals with ulcer” value was 2/6. In series [3] (After 30 min.), the “% Protection” value is recorded as “(61.7) %”. Further, the “% Protection” value in series [3] (After 120 min.) is on record as “(54.3) %”. In series [3], this compound gave a Potency of 96.1%. In series [4], the Potency was determined as 81.5% and the “% Inhibition/protection” value was 58.5%.
